# Laboratory results as given in patent publication US9353090B2, “Heterocyclic carboxylic acids as activators of soluble guanylate cyclase” (Boehringer Ingelheim International GmbH, priority 2014, dated 2016).
# Columns and labels:
# [1] = molecular target: human soluble guanylate cyclase alpha 1 and beta 1 subunits (sGC) (Homo sapiens (Human), UniProt Q02108+Q02153); experiment: sGC cellular activator assay (cGMP, HTRF), in the presence and absence of 50% human serum; format: cell-based; conditions: CHO cells stably expressing human sGC alpha 1/beta 1, preincubated with 40 microM ODQ; cGMP by HTRF; Table 2 does not state whether with or without 50% human serum
# Chain of human soluble guanylate cyclase alpha 1 and beta 1 subunits (sGC) (Q02108 whole entry partner): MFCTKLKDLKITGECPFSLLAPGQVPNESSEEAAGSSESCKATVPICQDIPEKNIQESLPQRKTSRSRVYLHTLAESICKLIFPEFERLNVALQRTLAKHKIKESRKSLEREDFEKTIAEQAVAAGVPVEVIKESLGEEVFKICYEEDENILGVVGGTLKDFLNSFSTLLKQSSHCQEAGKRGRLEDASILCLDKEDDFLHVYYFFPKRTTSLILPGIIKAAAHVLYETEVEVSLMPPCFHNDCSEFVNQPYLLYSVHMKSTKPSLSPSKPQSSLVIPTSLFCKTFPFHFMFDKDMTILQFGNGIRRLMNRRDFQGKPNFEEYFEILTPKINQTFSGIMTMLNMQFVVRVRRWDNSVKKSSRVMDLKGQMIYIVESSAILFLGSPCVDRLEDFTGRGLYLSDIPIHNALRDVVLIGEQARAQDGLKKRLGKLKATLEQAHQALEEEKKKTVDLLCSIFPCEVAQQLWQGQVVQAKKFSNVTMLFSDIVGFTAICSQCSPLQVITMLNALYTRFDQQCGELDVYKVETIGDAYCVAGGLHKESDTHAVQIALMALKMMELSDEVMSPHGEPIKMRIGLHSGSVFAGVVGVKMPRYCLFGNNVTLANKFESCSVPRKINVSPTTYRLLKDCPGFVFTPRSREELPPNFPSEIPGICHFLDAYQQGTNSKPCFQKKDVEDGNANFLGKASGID
# Chain of human soluble guanylate cyclase alpha 1 and beta 1 subunits (sGC) (Q02153 whole entry): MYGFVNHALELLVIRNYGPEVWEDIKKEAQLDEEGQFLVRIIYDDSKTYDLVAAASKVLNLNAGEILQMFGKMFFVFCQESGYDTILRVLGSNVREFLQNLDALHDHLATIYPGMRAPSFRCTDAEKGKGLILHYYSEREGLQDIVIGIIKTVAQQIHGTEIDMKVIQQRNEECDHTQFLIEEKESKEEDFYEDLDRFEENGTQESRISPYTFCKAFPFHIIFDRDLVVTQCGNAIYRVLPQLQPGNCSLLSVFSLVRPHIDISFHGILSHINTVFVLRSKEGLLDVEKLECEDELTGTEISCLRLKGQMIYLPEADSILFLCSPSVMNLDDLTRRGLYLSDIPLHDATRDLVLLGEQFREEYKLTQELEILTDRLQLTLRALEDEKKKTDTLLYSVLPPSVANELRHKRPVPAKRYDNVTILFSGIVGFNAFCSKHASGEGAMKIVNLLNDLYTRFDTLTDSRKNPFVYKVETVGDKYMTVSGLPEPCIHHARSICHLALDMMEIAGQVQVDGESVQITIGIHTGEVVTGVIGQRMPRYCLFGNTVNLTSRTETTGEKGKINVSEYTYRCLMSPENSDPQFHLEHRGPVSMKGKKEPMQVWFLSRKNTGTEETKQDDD
# Summary of the method: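 Heme-oxidized conditions: ODQ (40 microM, 1 h) pretreatment of CHO cells stably expressing human α1/β1 sGC, in buffer containing 0.1% BSA and IBMX.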
# [2] = Human liver microsome (HLM) metabolic stability assay; format: in vitro ADME; conditions: human liver microsomes
# Summary of the method: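 Compound at 1 uM incubated with human liver microsomes at 37° C. for 60 min after NADPH addition. Aliquots quenched in cold acetonitrile at 0, 5, 15, 30 and 60 min and analysed by LC/MS/MS. t1/2 from ln(% remaining) vs time slope; CLint, CLh and % Qh derived from it (n=1).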
# [3] = physchem; conditions: kinetic from dmso stock
# [4] = pH 2.2, aqueous buffer, Solubility (pH 2.2)
# [5] = pH 4.5, aqueous buffer, Solubility (pH 4.5)
# [6] = pH 6.8, aqueous buffer, Solubility (pH 6.8)
SMILES,EC50 [1] [nM],"Metabolic stability (Qh %), % hepatic blood flow [2] [%]","solubility at 24 h [3, 4] [µg/mL]","solubility at 24 h [3, 5] [µg/mL]","solubility at 24 h [3, 6] [µg/mL]"
CO[C@H]1CN(c2nc(-c3cccc(C)c3OCc3cc(C)c4c(c3)CCN(CC3COCCO3)C4)cs2)CC[C@H]1C(=O)O (stereo partly drawn) [Compound 168],53,<24,130,87,81
CO[C@@H]1CN(c2nc(-c3cccc(C)c3OCc3ccc4c(c3C)CCN(C3CCOCC3)C4)cs2)CC[C@@H]1C(=O)O [Compound 173],21,<24,120,71,75
CO[C@@H]1CN(c2nc(-c3cccc(C)c3OCc3ccc4c(c3C)CCN(C3COC3)C4)cs2)CC[C@@H]1C(=O)O [Compound 174],44,<24,120,79,83
CO[C@@H]1CN(c2nc(-c3cccc(C)c3OCc3cc(C)c4c(c3)CCN(CC3COCCO3)C4)cs2)CC[C@@H]1C(=O)O (stereo partly drawn) [Compound 175],155,<24,140,100,95
COc1cc(COc2c(C)cccc2-c2csc(N3CC[C@H](C(=O)O)[C@H](OC)C3)n2)cc2c1CN(C1CCOCC1)CC2 [Compound 177],47,<24,140,100,96
CO[C@H]1CN(c2nc(-c3cc(C)ccc3OCc3cc(C)c4c(c3)CCN(C3CCOCC3)C4)cs2)CC[C@H]1C(=O)O [Compound 180],46,<24,120,4.3,0.73
CO[C@H]1CN(c2nc(-c3cc(C)ccc3OCc3cc(C)c4c(c3C)CCN(C3CCOCC3)C4)cs2)CC[C@H]1C(=O)O [Compound 181],23,<24,120,53,5
CO[C@H]1CN(c2nc(-c3cc(C)ccc3OCc3ccc4c(c3C)CCN(C3CCOCC3)CC4)cs2)CC[C@H]1C(=O)O [Compound 182],26,<24,120,61,55
Cc1c(COc2ccccc2-c2ccnc(N3CC[C@@]4(C(=O)O)C[C@H]4C3)n2)ccc2c1CCN(C1CCOCC1)C2 [Compound 185],21,33,100,43,42
Cc1c(COc2ccccc2-c2ccnc(N3C[C@@H]4C[C@]4(C(=O)O)C3)n2)ccc2c1CCN(C1CCOCC1)C2 [Compound 188],150,<24,110,50,54
Cc1cccc(-c2ccnc(N3C[C@@H]4C[C@]4(C(=O)O)C3)n2)c1OCc1ccc2c(c1C)CCN(C1CCOCC1)C2 [Compound 189],43,<24,110,66,66
"Cc1ccc(OCc2ccc3c(c2)CCN(C2CCOCC2)C3=O)c(-c2csc(N3CC[C@@]4(C(=O)O)C[C@H]4C3)n2)c1 [Compound 192, (1R,6S)-3-(4-{5-Methyl-2-[1-oxo-2-(tetrahydro-pyran-4-yl)-1,2,3,4-tetrahydro-isoquinolin-6-ylmethoxy]-phenyl}-thiazol-2-yl)-3-aza-bicyclo[4.1.0]heptane-6-carboxylic acid]",29,<24,48,< 0.1,9.2
Cc1ccc(OCc2cnc3c(c2)CCN(C2CCOCC2)C3)c(-c2csc(N3CC[C@@]4(C(=O)O)C[C@H]4C3)n2)c1 [Compound 194],63,<24,140,70,57
Cc1ccc(OCc2ccc3c(c2)CCCN(C2CCOCC2)C3)c(-c2csc(N3CC[C@@]4(C(=O)O)C[C@H]4C3)n2)c1 [Compound 199],145,46,134,51.6,23.8
COc1ccc(OCc2ccc3c(c2C)CCN(C2CCOCC2)C3)c(-c2csc(N3CC[C@@]4(C(=O)O)C[C@H]4C3)n2)c1 [Compound 200],25,<24,130,43.6,10.5
COc1ccc(OCc2ccc3c(c2C)CCN(C2COC2)C3)c(-c2csc(N3CC[C@@]4(C(=O)O)C[C@H]4C3)n2)c1 [Compound 201],40,<24,132,10.1,19.5
CO[C@H]1CN(c2nc(-c3cc(C)ccc3OCc3ccc4c(c3C)CCN(C3CCOCC3)C4=O)cs2)CC[C@H]1C(=O)O [Compound 203],33,<24,56.8,0.1,1.6
CO[C@H]1CN(c2cccc(-c3cc(C)ccc3OCc3ccc4c(c3C)CCN(C3CCOCC3)C4=O)n2)CC[C@H]1C(=O)O [Compound 205],52,<24,109,42.6,10.8

# These reach a lower EC50 [1]. Values come first.
EC50 [1] [nM],"Metabolic stability (Qh %), % hepatic blood flow [2] [%]","solubility at 24 h [3, 4] [µg/mL]","solubility at 24 h [3, 5] [µg/mL]","solubility at 24 h [3, 6] [µg/mL]",SMILES
17,<24,110,74,82,CO[C@H]1CN(c2nc(-c3cccc(C)c3OCc3ccc4c(c3C)CCN(C3COC3)C4)cs2)CC[C@H]1C(=O)O [Compound 166]
17,<24,99,71,74,Cc1cc(COc2c(C)cccc2-c2ccnc(N3C[C@@H]4C[C@]4(C(=O)O)C3)n2)cc2c1CN(C1CCOCC1)CC2 [Compound 190]
16,<24,139,88.9,77.1,CO[C@@H]1CN(c2nc(-c3cccc(Cl)c3OCc3ccc4c(c3C)CCN(C3CCOCC3)C4)cs2)CC[C@@H]1C(=O)O [Compound 208]
14,<24,110,72,5.1,CO[C@H]1CN(c2nc(-c3cc(C)ccc3OCc3ccc4c(c3C)CCN(C3CCOCC3)C4)cs2)CC[C@H]1C(=O)O [Compound 178]
10,<24,110,84,82,CO[C@H]1CN(c2nc(-c3cccc(C)c3OCc3cc(C)c4c(c3)CCN(C3CCOCC3)C4)cs2)CC[C@H]1C(=O)O [Compound 167]
10,<24,140,100,99,COc1cc(COc2c(C)cccc2-c2csc(N3CC[C@@H](C(=O)O)[C@@H](OC)C3)n2)cc2c1CN(C1CCOCC1)CC2 [Compound 171]
9,47,110,73,53,CO[C@H]1CN(c2cccc(-c3cccc(C)c3OCc3ccc4c(c3C)CCN(C3CCOCC3)CC4)n2)CC[C@H]1C(=O)O [Compound 197]
9,62,84,10,0.1,Cc1ccc(OCc2ccc3c(c2C)CCN(C2CCOCC2)C3=O)c(-c2cccc(N3CC[C@@]4(C(=O)O)C[C@H]4C3)n2)c1 [Compound 202]
8,<24,143,88.6,76.8,CO[C@H]1CN(c2nc(-c3cccc(Cl)c3OCc3ccc4c(c3C)CCN(C3CCOCC3)C4)cs2)CC[C@H]1C(=O)O [Compound 207]
7,<24,130,98,85,CO[C@H]1CN(c2nc(-c3cccc(C)c3OCc3cc(F)c4c(c3)CCN(C3CCOCC3)C4)cs2)CC[C@H]1C(=O)O [Compound 172]
5,<24,130,90,79,CCc1cc(COc2c(C)cccc2-c2csc(N3CC[C@@H](C(=O)O)[C@@H](OC)C3)n2)cc2c1CN(C1CCOCC1)CC2 [Compound 170]
3,24,117,114,107,CO[C@@H]1CN(c2cccc(-c3cccc(C)c3OCc3ccc4c(c3C)CCN(C3COC3)CC4)n2)CC[C@@H]1C(=O)O [Compound 196]
